Consider six molecules from DBAASP.

Converted amounts (≈) assume the structure as drawn.

Among the test systems are Escherichia coli JM109; Staphylococcus aureus; Bacillus subtilis 168; Escherichia coli K-12; Escherichia coli; Listeria monocytogenes; Escherichia coli O157.
Common to all, as to experiment: ≥ marks a high value that may be exact or a test limit, other limits are often not marked, values filed in µg/mL are converted to µM
For assay [1], the system named is Staphylococcus aureus ATCC 6538P.
Assay [2] has as its system Escherichia coli PCM 2057.
In assay [3] the test system is Staphylococcus aureus PCM 1944.
Assay [4] concerns Escherichia coli BNCC 133264.
For assay [5], the system named is Pseudomonas aeruginosa BNCC 125486.
The test system of assay [6] is Pseudomonas aeruginosa PAO1.
Assay [7] has as its system Staphylococcus aureus BNCC 186335.
The subject of assay [8] is Staphylococcus aureus USA 300.
Assay [9] concerns Acinetobacter baumannii NM109.
The subject of assay [10] is Acinetobacter baumannii NM124.
The subject of assay [11] is Acinetobacter baumannii NM35.
The subject of assay [12] is Acinetobacter baumannii NM75.
Assay [13] concerns Acinetobacter baumannii NM8.
Assay [14] has as its system Candida albicans ATCC 90028.
The test system of assay [15] is Cutibacterium acnes ATCC 11828.
For assay [16], the system named is Cutibacterium acnes ATCC 15725.
Assay [17] has as its system Cutibacterium acnes ATCC 18380.
Assay [18] concerns Cutibacterium acnes ATCC 29903.
Assay [19] has as its system Cutibacterium acnes ATCC 31766.
Assay [20] concerns Cutibacterium acnes ATCC 32548.
Assay [21] relates to Cutibacterium acnes ATCC 33257.
Assay [22] concerns Cutibacterium acnes ATCC 50247.
The subject of assay [23] is Escherichia coli ATCC 25726.
For assay [24], the system named is Staphylococcus aureus ATCC 25923.
For assay [25], the system named is Pseudomonas aeruginosa PAK.
Assay [26] has as its system Streptococcus gordonii Challis DL1.
Assay [27] deals with Streptococcus mitis ATCC 903.
Assay [28] deals with Streptococcus mutans UA159.
In assay [29] the test system is Streptococcus sanguinis NY101.
For assay [30], the system named is Bacillus cereus ATCC 11778.
In assay [31] the test system is Enterococcus faecalis ATCC 29212.
In assay [32] the test system is Escherichia coli ATCC 25922.
Assay [33] deals with Escherichia coli ATCC 35218.
The test system of assay [34] is Micrococcus luteus ATCC 9341.
Assay [35] deals with Pseudomonas aeruginosa ATCC 9027.
For assay [36], the system named is Salmonella enterica subsp. arizonae ATCC 13314.
Assay [37] deals with Staphylococcus epidermidis ATCC 12228.
Assay [38] has as its system Streptococcus pyogenes ATCC 19615.

For the molecule `CC[C@H](C)[C@H](NC(=O)[C@H](C)NC(=O)[C@H](CC(C)C)NC(=O)[C@H](CS)NC(=O)[C@H](Cc1cnc[nH]1)NC(=O)[C@H](C)N)C(=O)NCC(=O)N[C@@H](CCCN=C(N)N)C(=O)N[C@@H](CCCN=C(N)N)C(N)=O` [AHCLAIGRR], the minimum inhibitory concentration (MIC) is 16.1 µM against Escherichia coli JM109, 6.02 µM in assay [1] and more than 64.2 µM with Staphylococcus aureus.

For the molecule `CC[C@H](C)[C@H](NC(=O)[C@H](CC(N)=O)NC(=O)[C@@H](NC(=O)[C@H](C)N)C(C)C)C(=O)N1CCC[C@H]1C(=O)N[C@@H](Cc1ccccc1)C(=O)N[C@@H](CCCCN)C(=O)N[C@H](C(=O)N[C@@H](Cc1cnc[nH]1)C(=O)N[C@@H](Cc1ccccc1)C(=O)N[C@@H](CCCN=C(N)N)C(=O)O)C(C)C` [AVNIPFKVHFR], the MIC in assay [2] and in [3] was not below 753 µM each time.

Turning to `CC[C@H](C)[C@H](NC(=O)[C@H](CCCCN)NC(=O)[C@H](CCCN=C(N)N)NC(=O)[C@@H](NC(=O)[C@H](CC(C)C)NC(=O)[C@H](CCCCN)NC(=O)[C@H](CC(C)C)NC(=O)[C@@H](NC(=O)[C@H](CCCCN)NC(=O)CNC(=O)[C@H](Cc1ccccc1)NC(=O)[C@@H](N)Cc1ccccc1)C(C)C)[C@@H](C)CC)C(=O)N[C@@H](Cc1ccccc1)C(N)=O` [FFGKVLKLIRKIF], the MIC in the assay with Bacillus subtilis 168 is not below 100 µM; in assay [4], not below 79.5 µM; with Escherichia coli K-12, not below 100 µM; against Escherichia coli, more than 79.5 µM; in the assay with Listeria monocytogenes, 4.97 µM (≈ 8 µg/mL); in assay [5], not below 79.5 µM. The minimum inhibitory concentration (MIC) was more than 100 µM in assay [6], not below 39.8 µM in assay [7], 3.1 µM (≈ 4.99 µg/mL) in assay [8] and 39.8 µM (≈ 64 µg/mL) with Staphylococcus aureus.

As for `CC[C@H](C)[C@H](NC(=O)[C@@H](NC(=O)CN)C(C)C)C(=O)N[C@@H](CCCCN)C(=O)N[C@@H](CO)C(=O)N[C@H](C(=O)N[C@@H](CC(C)C)C(=O)N[C@@H](CCCCN)C(=O)NCC(=O)N[C@H](C(=O)N[C@@H](C)C(=O)N[C@@H](CCCCN)C(=O)N[C@H](C(=O)N[C@H](C(=O)N[C@@H](C)C(=O)N[C@@H](CC(C)C)C(=O)NCC(=O)N[C@@H](CCSC)C(=O)N[C@@H](CC(C)C)C(N)=O)C(C)C)[C@@H](C)O)C(C)C)C(C)C` [GVIKSVLKGVAKTVALGML], the MIC is 12.5 µM (≈ 23.5 µg/mL) in assay [9]; 12.5 µM (≈ 23.5 µg/mL) in [10]; 6 µM (≈ 11.3 µg/mL) in assay [11]; 12.5 µM (≈ 23.5 µg/mL) in assay [12]; 6 µM (≈ 11.3 µg/mL) in assay [13]; not below 50 µM in assay [14]. Further, the MIC in assay [15] was 12.5 µM (≈ 23.5 µg/mL); in assay [16], 12.5 µM (≈ 23.5 µg/mL); in assay [17] it was not below 50 µM; in assay [18] it was 25 µM (≈ 47.1 µg/mL); in assay [19], 6 µM (≈ 11.3 µg/mL); in assay [20], 12.5 µM (≈ 23.5 µg/mL). For the same molecule, the MIC in [21] turned out to be 12.5 µM (≈ 23.5 µg/mL); in [22] it was 6 µM (≈ 11.3 µg/mL); in assay [23] it was 12.5 µM (≈ 23.5 µg/mL); in assay [24], 12.5 µM (≈ 23.5 µg/mL).

For the molecule `CC[C@H](C)[C@H](N)C(=O)N[C@@H](CCCCN)C(=O)N[C@@H](CCC(N)=O)C(=O)N[C@@H](CC(C)C)C(=O)N[C@@H](CC(C)C)C(=O)N[C@@H](Cc1cnc[nH]1)C(=O)N[C@@H](Cc1ccccc1)C(=O)N[C@@H](Cc1ccccc1)C(=O)N[C@@H](CCC(N)=O)C(=O)N[C@@H](CCCN=C(N)N)C(=O)N[C@@H](Cc1ccccc1)C(=O)NCC(=O)NCC(=O)NCC(=O)N[C@@H](Cc1ccccc1)C(=O)N[C@H](C(=O)N[C@@H](CCCCN)C(=O)N[C@@H](Cc1cnc[nH]1)C(=O)N[C@@H](Cc1ccccc1)C(=O)N[C@H](C(=O)N[C@@H](Cc1cnc[nH]1)C(=O)N[C@@H](CCCN=C(N)N)C(=O)N[C@@H](Cc1ccccc1)C(N)=O)[C@@H](C)CC)[C@@H](C)CC` [IKQLLHFFQRFGGGFIKHFIHRF], the MIC in assay [25] is not below 43.5 µM; with Staphylococcus aureus, 21.7 µM (≈ 62.5 µg/mL); in [26] it was 11.1 µM (≈ 32 µg/mL); in assay [27], 5.57 µM (≈ 16 µg/mL); in [28], 2.78 µM (≈ 8 µg/mL); in assay [29] it was 11.1 µM (≈ 32 µg/mL).

For `CC(C)C[C@H](NC(=O)[C@H](CC(C)C)NC(=O)[C@H](CCC(N)=O)NC(=O)[C@H](Cc1ccc(O)cc1)NC(=O)[C@H](CCCN=C(N)N)NC(=O)CNC(=O)[C@H](C)NC(=O)[C@H](C)NC(=O)[C@@H](NC(=O)[C@H](CO)NC(=O)[C@H](Cc1ccc(O)cc1)NC(=O)[C@@H](NC(=O)[C@H](CCCCN)NC(=O)[C@H](Cc1ccc(O)cc1)NC(=O)[C@H](CCCN=C(N)N)NC(=O)[C@@H]1CCCN1C(=O)[C@H](CC(C)C)NC(=O)[C@H](Cc1ccc(O)cc1)NC(=O)[C@@H](NC(=O)[C@@H](N)CCCCN)C(C)C)C(C)C)[C@@H](C)O)C(N)=O` [KVYLPRYKVYSTAAGRYQLL], the MIC in [30] was not below 150 µM; in [31], more than 150 µM; in assay [32], more than 150 µM; in assay [33], not below 150 µM; against Escherichia coli O157, not below 150 µM; in assay [34] it was not below 150 µM. Besides, the minimum inhibitory concentration (MIC) in [35] was more than 150 µM; in [36], not below 150 µM; in assay [37], more than 150 µM; in [38], not below 150 µM.

By MIC is commonly meant the smallest concentration in the dilution series that meets the test's criterion for growth inhibition. Low readings indicate inhibition by little substance, high ones a need for much substance.
